Results taken from patent US6524585B1, “Indolicidin analogs and methods of using same” (The Regents of the University of California, priority 1998, dated 2003).
Entries after “also recorded” stand apart in the source; their conditions may differ. Non-standard residues stand in square brackets, D forms with d. No end group written: not given here. hSer = N[C@@H](CCO)C(=O)O

Key:
Assay type in all cases: cell-based
[1] = tested on: fungi such as Cryptococcus; test: antimicrobial activity against fungi
microorganisms = test: antimicrobial activity, microbicidal or microbial inhibition assays (overall statements); conditions: overall statement, microorganism not specified
Description: (§1) The antimicrobial activity of the indolicidin analogs was determined using microbicidal or microbial inhibition assays. The indolicidin analogs initially were characterized using a microbial inhibition method, including a modified plate diffusion assay (Hultmark et al., EMBO J. 2:571-573 (1983); Lehrer et al., J. Immunol. Meth. 137:167-173 (1991), each of which is incorporated herein by reference).
(§2) Nutrient-containing agar (or agarose) plates were seeded with a selected target microorganism and peptide samples (5-10 μl) were placed into small wells formed in the solid medium. Following an initial incubation interval of 1 to 4 hr, the well-containing layer was overlayed with enriched (2× normal) solid medium in order to support microbial growth outside the perimeter of inhibition. After overnight incubation at 30° C. to 37° C., the antimicrobial activity was quantitated by measuring the clear zones around each well (zone of inhibition).
Microbicidal activity was measured by first incubating the target organism with an indolicidin analog in an aqueous suspension, then plating the suspension to quantitate surviving microorganisms. Cultures were grown to mid log phase in an appropriate medium, harvested, washed, and resuspended to 1-2×10^7 colony forming units (CFU) per ml. To conserve peptide, the incubation volume usually was 0.05 ml, with the final cell concentration being 1-2×10^6CFU/ml. Peptide stock solutions, usually made up in 0.01% acetic acid, were diluted in the incubation buffer to a final concentration of 1 μg/ml to 100 μg/ml, and the incubation was initiated by addition of an appropriate volume of the bacterial or fungal stock suspension to the prewarmed (37° C.) peptide-buffer mixture. At timed intervals, 50 μl or 100 μl samples were removed and diluted serially, then plated on nutrient-containing agar plates. Killing activity was quantitated by determining the reduction in CFU relative to appropriate control incubations.

Staphylococccus aureus = test: agar diffusion assay (zone of inhibition); conditions: S. aureus
Description: as §1, §2

| Substance | antimicrobial activity against fungi such as Cryptococcus [1] | antimicrobial activity (microorganisms) | antimicrobial activity (growth inhibition, zone of inhibition) (Staphylococccus aureus) |
| --- | --- | --- | --- |
| Lys-Trp-Pro-Trp-Trp-Pro-Trp-Arg-NH2 (KWPWWPWR-NH2) [Indol 5-12] | substantial antimicrobial activity |  |  |
| Trp-Lys-Trp-Pro-Trp-Trp-Pro-Trp-Arg-NH2 (WKWPWWPWR-NH2) [Indol 4-12] | substantial antimicrobial activity |  |  |
| Leu-Pro-Phe-Lys-Phe-Pro-Phe-Phe-Pro-Phe-Arg-Arg-NH2 (LPFKFPFFPFRR-NH2) [Indol 2-13/F] |  | exhibits antimicrobial activity |  |
| [H2N-]Ile-Leu-Pro-Trp-Lys-Trp-Pro-Trp-Trp-Pro-Trp-Arg-Arg-Hse (ILPWKWPWWPWRRX; C-terminal homoserine; MOD_RES (14) Xaa is homoserine (Hse).) [Indol(1-13)-Hse] |  | have antimicrobial activity | antimicrobial activity equivalent to that of synthesized Indol 1-13 |
| Leu-Pro-Trp-Lys-Trp-Pro-Trp-Trp-Pro-Trp-Arg-Arg-NH2 (LPWKWPWWPWRR-NH2) [Indol 2-13] |  | broad spectrum antimicrobial activity; also recorded: exhibits antimicrobial activity |  |
| Pro-Trp-Lys-Trp-Pro-Trp-Trp-Pro-Trp-Arg-Arg-NH2 (PWKWPWWPWRR-NH2) [Indol 3-13] |  | broad spectrum antimicrobial activity; also recorded: exhibits antimicrobial activity |  |
| Indol 1-13/F-Hse: Indol 1-13/F peptide with a carboxy terminal homoserine, produced by cyanogen bromide cleavage (ILPFKFPFFPFRR[hSer]) |  | have antimicrobial activity |  |
| Lys-Trp-Pro-Trp-Trp-Pro-Trp-Arg-Arg-NH2 (KWPWWPWRR-NH2) [Indol 5-13] |  | broad spectrum antimicrobial activity; also recorded: exhibits antimicrobial activity |  |
| Pro-Trp-Lys-Trp-Pro-Trp-Trp-Pro-Trp-Arg-NH2 (PWKWPWWPWR-NH2) [Indol 3-12] | substantial antimicrobial activity |  |  |
| Trp-Pro-Trp-Trp-Pro-Trp-Arg-NH2 (WPWWPWR-NH2) [Indol 6-12] | substantial antimicrobial activity |  |  |
| Trp-Lys-Trp-Pro-Trp-Trp-Pro-Trp-Arg-Arg-NH2 (WKWPWWPWRR-NH2) [Indol 4-13] |  | broad spectrum antimicrobial activity; also recorded: exhibits antimicrobial activity |  |
